Results taken from paper PMC12195967, “Cobalt(II) Complexes of 4′–Nitro–Fenamic Acid: Characterization and Biological Evaluation” (Molecules, 2025).

Columns and labels:
CT DNA = assay: DNA-melting temperature of CT DNA in presence of the compounds; format: binding, calf; details: compound–DNA ratio 1:50; for Tm of CT DNA in the presence of the compound: CT DNA alone Tm 80.7 °C; for ΔTm of CT DNA: versus CT DNA alone 80.7 °C
From the text: In order to further clarify the interaction mode of the compounds with CT DNA, the effect of the temperature of this interaction was also investigated. Within this context, the thermal denaturation of DNA in the presence of the compounds was studied with UV-vis spectroscopy in order to calculate (via a sigmoidal fitting of the experimental data) the DNA-melting temperature (Tm), i.e., the temperature at which half of double-stranded DNA is denatured (“melted”) to single-stranded DNA.
S3 Binding studies with CT DNA
In order to study the interaction of the compounds with DNA, the compound was initially dissolved in DMSO (1 mM). Mixing of such solutions with the aqueous buffer solutions of DNA used in the studies never exceeded 5% DMSO (v/v) in the final solution, which was needed due to low aqueous solubility of most compounds. In all experiments, the effect of DMSO on the data has been taken into consideration and the appropriate corrections have been performed. The interaction of the compound with CT DNA was monitored by UV−vis spectroscopy, and viscosity measurements, and via competitive studies with EB by fluorescence emission spectroscopy. […]
S3.2 Determination of the DNA–melting temperature (Tm)
The UV–vis spectra of a CT DNA solution (1.25×10–4 M) in the presence of the compounds (2.5×10–6 M) were recorded upon increasing the temperature. The obtained data are presented as normalized absorbance at 260 nm (Normalized A(260 nm)) versus temperature (T (ºC)). A sigmoidal fitting of the data was applied for each compound and the melting temperature Tm (temperature with normalized absorbance of 0.5) was determined. […]

[1] = target: T1, bovine serum albumin (BSA) (Bos taurus, UniProt P02769); assay: Albumin tryptophan fluorescence quenching; format: binding; details: for relative fluorescence intensity of BSA (I/Io, %), final: % of the initial BSA fluorescence remaining, λem 345 nm; for K(BSA): Scatchard equation, no site marker; for Kq (BSA): τ0 = 10^−8 s
T1 construct: purchased Sigma-Aldrich Co
T1 sequence (P02769 25-607): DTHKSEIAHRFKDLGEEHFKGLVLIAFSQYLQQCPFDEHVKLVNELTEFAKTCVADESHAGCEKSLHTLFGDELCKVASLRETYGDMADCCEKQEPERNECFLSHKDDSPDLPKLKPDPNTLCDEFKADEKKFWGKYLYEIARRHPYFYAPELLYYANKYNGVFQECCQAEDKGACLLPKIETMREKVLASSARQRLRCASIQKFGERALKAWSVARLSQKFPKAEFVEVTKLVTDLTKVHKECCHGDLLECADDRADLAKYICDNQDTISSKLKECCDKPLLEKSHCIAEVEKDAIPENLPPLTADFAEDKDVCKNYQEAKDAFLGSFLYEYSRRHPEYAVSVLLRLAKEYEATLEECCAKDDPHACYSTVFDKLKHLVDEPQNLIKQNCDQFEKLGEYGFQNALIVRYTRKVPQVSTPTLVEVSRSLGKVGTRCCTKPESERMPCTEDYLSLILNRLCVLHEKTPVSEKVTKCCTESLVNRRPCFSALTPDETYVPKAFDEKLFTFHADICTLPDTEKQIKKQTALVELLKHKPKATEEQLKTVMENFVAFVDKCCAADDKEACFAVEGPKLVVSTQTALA
Method: (§1) The interaction between complexes 1–4 and albumins was investigated by recording the tryptophan fluorescence emission spectra and monitoring the quenching induced by incremental amounts of the complexes. For these experiments, albumins ([…]) were prepared in buffer solution (150 mM NaCl and 15 mM trisodium citrate at pH = 7) and their fluorescence emission spectra were recorded in the range 300—500 nm for λexcitation = 295 nm. Upon incremental addition of the compounds (Figures S13 and S14), a significant decrease in the intensity of the corresponding emission band at λmax,emission = 341 nm and 345 nm for HSA and BSA, respectively, was observed (up to 87% of the initial fluorescence, Figure 8). The observed fluorescence emission quenching might be a result of a change in the spatial conformation of the protein and specifically of rearrangement of its secondary structure, as a result of SA–complex interactions. To quantify this interaction, the fluorescence emission spectra (λexcitation = 295 nm) of the compounds were subtracted from the corresponding overall spectra. The potential influence of the inner-filter effect on the measurements was evaluated with Equation (S6) and was found negligible to affect the measurements.
(§2) The Stern–Volmer constant (KSV), the SA-quenching constant (Kq) and the SA-binding constant (K) of the compounds were determined using the Stern–Volmer and Scatchard equations (Equations (S2), (S3) and (S7)) and corresponding plots (Figures S15–S18). In these calculations, the fluorescence lifetime of tryptophan in SAs (το) was assumed to be 10^−8 s. […]
(§3) S5 Albumin−binding studies
(§4) S5.1 Interaction with albumins
(§5) In order to study the interaction of the compounds with the albumins, the compound was initially dissolved in DMSO (1 mM). Mixing of such solutions with the aqueous buffer solutions of the albumins used in the studies never exceeded 5% DMSO (v/v) in the final solution, which was needed due to low aqueous solubility of most […]
(§6) With the purpose to investigate if the compound can bind to carrier protein like serum albumins, albumin binding studies were carried out by tryptophan fluorescence quenching experiments using BSA or HSA (3 μM) in buffer (containing 15 mM trisodium citrate and 150 mM NaCl at pH 7.0). The quenching of the emission intensity of tryptophan residues of BSA at 344 nm or HSA at 342 nm was monitored using the compound as quenchers with increasing concentration. The fluorescence emission spectra of the compound were also recorded with λexcitation = 295 nm; in case that an additional emission band appeared the albumin−fluorescence emission spectra were corrected by subtracting the spectra of the compound. The influence of the inner−filter effect on the measurements was evaluated by the equation [9] :
(§7) Icorr = Imeas × 10 2 × 10 2 (equation S6) where Icorr = corrected intensity, Imeas = the measured intensity, c = the concentration of the quencher, d = the cuvette (1 cm), ε(λexc) and ε(λem) = the ε of the quencher at the excitation and the emission wavelength, respectively, as calculated from the UV−vis spectra of the […]
(§8) The Stern−Volmer and Scatchard graphs are used to study the interaction of the compound with the albumins. According to the Stern−Volmer quenching equation (equation S2), where Io = initial tryptophan fluorescence intensity of albumin, I = tryptophan fluorescence intensity of BSA after the addition of the quencher, Kq = quenching constant, KSV = Stern−Volmer constant, τo = average lifetime of albumin without the quencher, and, taking as fluorescence lifetime (τo) of tryptophan in albumin at around 10−8 s, KSV (in M−1) can be obtained by the slope of the diagram Io/I versus [compound] (Stern−Volmer plots), […]
(§9) and subsequently the quenching constant (Kq, in M−1s−1) may be calculated from equation From the Scatchard equation:
(§10) [Q] = nK − K Io (equation S7) where n is the number of binding sites per albumin and K is the albumin−binding constant […]

[2] = target: T2, human serum albumin (HSA) (Homo sapiens, UniProt P02768); assay: Albumin tryptophan fluorescence quenching; format: binding; details: for relative fluorescence intensity of HSA (I/Io, %), final: % of the initial HSA fluorescence remaining, λem 341 nm; for K(HSA): Scatchard equation, no site marker; for Kq (HSA): τ0 = 10^−8 s
T2 construct: purchased Sigma-Aldrich Co
T2 sequence (P02768 25-609): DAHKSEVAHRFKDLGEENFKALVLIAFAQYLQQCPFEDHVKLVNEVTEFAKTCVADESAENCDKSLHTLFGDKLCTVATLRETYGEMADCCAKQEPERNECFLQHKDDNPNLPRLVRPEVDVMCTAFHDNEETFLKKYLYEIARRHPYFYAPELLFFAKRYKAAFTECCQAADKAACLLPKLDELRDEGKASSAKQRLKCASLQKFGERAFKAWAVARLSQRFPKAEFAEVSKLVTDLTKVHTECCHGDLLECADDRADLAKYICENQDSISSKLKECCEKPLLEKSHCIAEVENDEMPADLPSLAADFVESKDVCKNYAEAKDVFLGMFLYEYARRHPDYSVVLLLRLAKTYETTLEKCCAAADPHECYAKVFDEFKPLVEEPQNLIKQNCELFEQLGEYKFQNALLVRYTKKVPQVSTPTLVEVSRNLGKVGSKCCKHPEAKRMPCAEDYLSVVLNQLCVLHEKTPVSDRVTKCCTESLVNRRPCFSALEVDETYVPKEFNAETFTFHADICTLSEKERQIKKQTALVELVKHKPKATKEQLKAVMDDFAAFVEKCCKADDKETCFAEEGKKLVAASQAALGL
Method: as §1, §2, §3, §4, §5, §6, §7, §8, §9, §10

Row | Compound | Tm of CT DNA in the presence of the compound (CT DNA) | relative fluorescence intensity of BSA (I/Io, %), final [1] | K(BSA) [1] | Kq (BSA) [1] | relative fluorescence intensity of HSA (I/Io, %), final [2] | K(HSA) [2] | Kq (HSA) [2] | ΔTm of CT DNA (CT DNA)
1 | O=C(O)c1ccccc1Nc1ccc([N+](=O)[O-])cc1 [4′–NO2–fenH, 4′–nitrofenamic acid] | 83.7 °C | 45.0% | 3.31 (±0.14) × 10^5 M^−1 | 1.18 (±0.09) × 10^13 M^−1s^−1 | 54.3% | 3.82 (±0.09) × 10^5 M^−1 | 9.54 (±1.09) × 10^12 M^−1s^−1 | 
2 | CO.CO.CO.CO.O=C([O-])c1ccccc1Nc1ccc([N+](=O)[O-])cc1.O=C([O-])c1ccccc1Nc1ccc([N+](=O)[O-])cc1.[Co+2] [Complex 1, [Co(4′–NO2–fen)2(MeOH)4]] | 83.7 °C | 45.6% | 1.68 (±0.07) × 10^5 M^−1 | 9.51 (±0.06) × 10^12 M^−1s^−1 | 32.8% | 1.68 (±0.04) × 10^5 M^−1 | 1.10 (±0.03) × 10^13 M^−1s^−1 | 
3 | O=C([O-])c1ccccc1Nc1ccc([N+](=O)[O-])cc1.O=C([O-])c1ccccc1Nc1ccc([N+](=O)[O-])cc1.[Co+2].c1ccc(Nc2ccccn2)nc1 [Complex 2, [Co(4′–NO2–fen)2(bipyam)]] | 74.5 °C | 35.3% | 1.75 (±0.08) × 10^5 M^−1 | 1.30 (±0.06) × 10^13 M^−1s^−1 | 21.1% | 2.56 (±0.10) × 10^5 M^−1 | 1.91 (±0.06) × 10^13 M^−1s^−1 | negative
4 | O=C([O-])c1ccccc1Nc1ccc([N+](=O)[O-])cc1.O=C([O-])c1ccccc1Nc1ccc([N+](=O)[O-])cc1.[Co+2].c1cnc2c(c1)ccc1cccnc12 [Complex 3, [Co(4′–NO2–fen)2(phen)]] | 84.7 °C | 24.4% | 2.06 (±0.07) × 10^5 M^−1 | 1.64 (±0.04) × 10^13 M^−1s^−1 | 22.7% | 1.93 (±0.09) × 10^5 M^−1 | 1.87 (±0.04) × 10^13 M^−1s^−1 | 
5 | C[O-].C[O-].Cc1ccc2ccc3ccc(C)nc3c2n1.Cc1ccc2ccc3ccc(C)nc3c2n1.O=C([O-])c1ccccc1Nc1ccc([N+](=O)[O-])cc1.O=C([O-])c1ccccc1Nc1ccc([N+](=O)[O-])cc1.[Co+2].[Co+2] [Complex 4, [Co2(4′–NO2–fen)2(μ–CH3O)2(neoc)2]] | 73.9 °C | 19.2% | 2.74 (±0.10) × 10^5 M^−1 | 2.19 (±0.05) × 10^13 M^−1s^−1 | 12.1% | 5.03 (±0.19) × 10^5 M^−1 | 3.98 (±0.12) × 10^13 M^−1s^−1 | negative
